Assay results from ChEMBL document CHEMBL5236632, “Membrane-Active Nonivamide Derivatives as Effective Broad-Spectrum Antimicrobials: Rational Design, Synthesis, and Biological Evaluation” (J Med Chem, 2022).
Converted amounts (≈) assume the structure as drawn. The source made the active and inactive calls. The rule behind the calls is not given here.

What was measured:
Staphylococcus aureus [1] = experiment: Antibacterial activity against Staphylococcus aureus ATCC 29213 assessed as inhibition of visible growth measured after 18 to 24 hrs by broth dilution method; format: functional; settings: time 18-24 hrs
[2] = Selectivity ratio, HC50 for hemolytic activity in rabbit RBC to MIC for antibacterial activity against Staphylococcus aureus ATCC 29213; format: toxicity; settings: rabbit red blood cells
Escherichia coli = experiment: Antibacterial activity against Escherichia coli ATCC 25922 assessed as inhibition of visible growth measured after 18 to 24 hrs by broth dilution method; format: functional; settings: time 18-24 hrs
Staphylococcus aureus [3] = experiment: Antibacterial activity against methicillin-resistant Staphylococcus aureus N315 assessed as inhibition of visible growth measured after 18 to 24 hrs by broth dilution method; format: functional; settings: time 18-24 hrs
[4] = Selectivity ratio, HC50 for hemolytic activity in rabbit RBC to MIC for antibacterial activity against methicillin-resistant Staphylococcus aureus NCTC 10442; format: toxicity; settings: rabbit red blood cells
[5] = Haemolytic activity in rabbit red blood cells incubated for 60 mins by k multi-mode reader relative to control; format: toxicity, cell-based, Oryctolagus cuniculus, Erythrocyte; settings: rabbit red blood cells
Staphylococcus aureus [6] = experiment: Antibacterial activity against methicillin-resistant Staphylococcus aureus NCTC 10442 assessed as inhibition of visible growth measured after 18 to 24 hrs by broth dilution method; format: functional; settings: time 18-24 hrs
[7] = Selectivity ratio, HC50 for hemolytic activity in rabbit RBC to MIC for antibacterial activity against methicillin-resistant Staphylococcus aureus N315; format: toxicity; settings: rabbit red blood cells
Cell membrane [8] = experiment: Induction of membrane depolarization in Staphylococcus aureus ATCC 29213 assessed as increase in fluorescence intensity at 4 to 8 times MIC measured for 60 mins by DiSC3(5) dye based fluorescence method; format: subcellular
Cell membrane [9] = experiment: Induction of membrane depolarization in Escherichia coli ATCC 25922 assessed as increase in fluorescence intensity at 4 to 8 times MIC measured for 60 mins by DiSC3(5) dye based fluorescence method; format: subcellular
Cell membrane [10] = experiment: Induction of outer membrane permeability in Escherichia coli ATCC 25922 assessed as increase fluoresence intensity at 4 to 8 times of MIC measured for 60 mins by NPN uptake assay; format: subcellular

SMILES | MIC (Staphylococcus aureus [1]) [µg/mL] | selectivity ratio [2] | MIC (Escherichia coli) [µg/mL] | MIC (Staphylococcus aureus [3]) [µg/mL] | selectivity ratio [4] | HC50 at 1 h [5] [µg/mL] | MIC (Staphylococcus aureus [6]) [µg/mL] | selectivity ratio [7] | Activity (Cell membrane [8]) | Activity (Cell membrane [9]) | Activity (Cell membrane [10])
CCCCCCCCC(=O)NCc1ccc(OCCCCCCNCCN(CCNC(=N)N)CCNC(=N)N)c(OCCCCCCNCCN(CCNC(=N)N)CCNC(=N)N)c1 | 1.56 (≈ 1.73 µM) | > 128 | 12.5 (≈ 13.8 µM) | 1.56 (≈ 1.73 µM) | > 128 | > 200 | 1.56 (≈ 1.73 µM) | > 128 |  |  | 
CCCCCCCCC(=O)NCc1ccc(OCCCCN(CCCN(C)C)CCCN(C)C)c(OC)c1 | > 50 |  | > 50 | > 50 |  | > 200 | > 50 |  |  |  | 
CCCCCCCCC(=O)NCc1ccc(OCCCCNC(=N)N)c(OCCCCNC(=N)N)c1 | 6.25 (≈ 12.4 µM) | > 32 | 50 (≈ 98.9 µM) | 3.12 (≈ 6.18 µM) | > 32 | > 200 | 3.12 (≈ 6.18 µM) | > 32 |  |  | 
COc1cc(CNC(=O)CCCC/C=C/C(C)C)ccc1OCCCCCCN | > 50 |  | > 50 | > 50 |  | > 200 | > 50 |  |  |  | 
COc1cc(CNC(=O)CCCC/C=C/C(C)C)ccc1O [CAPSAICIN] | > 50 |  | > 50 | > 50 |  | > 200 | > 50 |  | inactive | inactive | inactive
CCCCCCCCC(=O)NCc1ccc(OCCCCCNC(=N)N)c(OC)c1 | 6.25 (≈ 14.9 µM) | > 32 | 50 (≈ 119 µM) | 6.25 (≈ 14.9 µM) | > 32 | > 200 | 6.25 (≈ 14.9 µM) | > 32 |  |  | 
CCCCCCCCC(=O)NCc1ccc(OCCCCCCCCNC(=N)N)c(OC)c1 | 1.56 (≈ 3.37 µM) | > 128 | > 50 | 1.56 (≈ 3.37 µM) | > 128 | > 200 | 1.56 (≈ 3.37 µM) | > 128 |  |  | 
CCCCCCCCC(=O)NCc1ccc(OCCCCCCNCCN(CCN)CCN)c(OC)c1 | 3.12 (≈ 5.99 µM) | > 64 | > 50 | 3.12 (≈ 5.99 µM) | > 64 | > 200 | 3.12 (≈ 5.99 µM) | > 64 |  |  | 
CCCCCCCCC(=O)NCc1ccc(OCCCNC(=N)N)c(OC)c1 | 25 (≈ 63.7 µM) | > 8 | > 50 | 12.5 (≈ 31.8 µM) | > 8 | > 200 | 12.5 (≈ 31.8 µM) | > 8 |  |  | 
COc1cc(CNC(=O)CCCC/C=C/C(C)C)ccc1OCCCCNC(=N)N | 3.12 (≈ 7.47 µM) | > 32 | 50 (≈ 119 µM) | 6.25 (≈ 14.9 µM) | > 32 | > 200 | 3.12 (≈ 7.47 µM) | > 32 |  |  | 
COc1cc(CNC(=O)CCCC/C=C/C(C)C)ccc1OCCCCCCNCCN(CCNC(=N)N)CCNC(=N)N | 6.25 (≈ 10.1 µM) | > 32 | 50 (≈ 80.9 µM) | 3.12 (≈ 5.06 µM) | > 32 | > 200 | 3.12 (≈ 5.06 µM) | > 32 |  |  | 
CCCCCCCCC(=O)NCc1ccc(OCCCCN(CC)CC)c(OC)c1 | > 50 |  | > 50 | > 50 |  | > 200 | > 50 |  |  |  | 
CCCCCCCCC(=O)NCc1ccc(OCCCCNCC)c(OC)c1 | > 50 |  | > 50 | > 50 |  | > 200 | > 50 |  |  |  | 
CCCCCCCCC(=O)NCc1ccc(OCC(=O)N[C@@H](CCCNC(=N)N)C(=O)OC)c(OC)c1 | 25 (≈ 47.9 µM) | > 4 | > 50 | 50 (≈ 95.8 µM) | > 4 | > 200 | 25 (≈ 47.9 µM) | > 4 |  |  | 
